Data on 1 sequence can be found in patent US8247378B2, “Homing peptide for tumor vasculature” (The Chinese University of Hong Kong, priority 2009, dated 2012).

The test system of experiment [1] is orthotopic colorectal cancer tissue (colon 26). Description: In vivo phage targeting assay, orthotopic colorectal cancer model. On the set-up: species or system BALB/c mice. Particulars: synthetic peptide (300 μg) co-injected with CTPSPFSHC-phage. On the procedure: The mice were maintained at Chinese University of Hong Kong Animal Facility.
The model was performed as previously published with some modifications. (See Takahashi T, Morotomi M, and Nomoto K (2004). A novel mouse model of rectal cancer established by orthotopic implantation of colon cancer cells. Cancer Sci 95, 514-519). Briefly, all mice were given the tap water containing 3% dextran sulfate sodium (DSS) for 8 days to induce colitis. Mice were fasted for 18 h (DSS) after colitis induction, and then anesthetized with sodium pentobarbital. Colon 26 cells (3×10^6 cells/40 μl/mouse) were infused intrarectally with a micropipette inserted 2 cm into the anus of the mice. The anus was compressed with a noncrushing microclamp immediately after instillation of tumor cells for 30 min to prevent leakage. Successful models were used for in vivo selection at 2 weeks after implantation of tumor cells.
The assay was as described in Zhang L, Giraudo E, Hoffman J A, Hanahan D, and Ruoslahti E (2006). Lymphatic zip codes in premalignant lesions and tumors. Cancer Res 66, 5696-5706. Briefly, mice bearing tumors were anesthetized and i.v. injected with 1×10^9 pfu CTPSPFSHC-phage or control phage. After 8 minutes, mice were perfused through the heart with DMEM containing 1% BSA. The tumor and control organs were removed from each mouse and the phage was rescued and titered. […]

Another experiment concerns SW1116 cells. Nature of the experiment: In vitro cell viability assay (MTT assay), SW1116. Format: cell-based, human. Particulars: SW1116, 48 h, increasing concentrations. On the procedure:
(§1) Cell lines and cell culture: The murine colorectal cancer cell colon 26, human colon cancer cell SW1116 were cultured at 37° C. in a humidified atmosphere containing 5% CO2, in RPMI-1640 medium supplemented with 2 g/L sodium bicarbonate, 100 units/ml penicillin, […] streptomycin and 10% FBS.
(§2) In vitro cell viability assay (MTT assay): Cell viability was assessed by MTT assay, which depends on the ability of viable cells to reduce the MTT to a colored formazan product. In brief, cells (10^4 cells per well) were seeded in 96-well microculture plates overnight for attachment, and then incubated with increasing concentrations of the peptides CTPSPFSHC-GG-D(KLAKLAK)2 or CTPSPFSHC (SEQ ID NO:1) or D(KLAKLAK)2 in 100 μl of 1% FBS in DMEM for 6˜48 hours at 37° C. In the next step, MTT was added to each well, and the cells were further incubated for 3 h. The colored formazan product was determined photometrically at 570 nm in a multi-well plate reader (Bio-Rad).
(§3) TCP-1 conjugate and induction of apoptosis in colorectal cancer cells: Next, in order to examine whether the TCP-1 peptide could serve as a drug carrier into cancer cells, we synthesized a chimeric peptide of TCP-1 peptide to a proapoptotic peptide D(KLAKLAK)2, which disrupts mitochondrial membranes upon receptor-mediated cell internalization and causes programmed cell death. Increasing concentrations of TCP-1 conjugate (TCP-GG-D(KLAKLAK)2), equimolar TCP-1 or D(KLAKLAK)2 were incubated with colon 26 or SW1116 cells at 37° C. Cell viability was assessed after 6 h (colon 26) and 48 h (SW1116). The effect of TCP-1 conjugate on the cell viability was determined and compared respectively with TCP-1 or D(KLAKLAK)2 alone.
Background: Tetrazolium dyes change colour on reduction, which living cells bring about.

Experiment [2] has as its system orthotopic colorectal tumors. Nature of the experiment: Organ level imaging of tumor tissues with FITC-labeled peptide. Type of experiment: in vivo, mice. Conditions: 20 h after injection. On the procedure: Imaging of tissue was done under a blue light, by using the imaging system of KODAK Image Station 2000MM.
To determine whether FITC-labeled TCP-1 accumulated into the tumor tissues can be visualized at the organ level, tumor-bearing mice were injected intravenously with FITC-labeled TCP-1, control peptide or PBS alone. More specifically, tumor-bearing mice were i.v. injected with 500 nmol fluorescein-conjugated peptide (in 500 μl PBS). The peptide was allowed to circulate for 20 hour. The mice were killed, and various tissues were excised and examined for fluorescence. Organ imaging was done under a blue light, by using the imaging system of KODAK Image Station 2000MM.
Further, FITC-labeled TCP-1 could specifically accumulate in the tumor tissues with various volumes (diameter 2 mm, 6 mm, 8 mm tested) (FIG. 5B).

The next experiment relates to colon 26 cells. Nature of the experiment: In vitro cell viability assay (MTT assay), colon 26. Conditions: colon 26, 6 h, increasing concentrations. Format: cell-based, murine. On the procedure:
as §1, §2, §3

Where no end group is shown, it is not given here.

Consider CTPSPFSHC (also: cyclic) [TCP-1], for which, in experiment [1], the “effect on phage number recovered from control organs (brain, colon)” value is listed as “not much affected” and the “reduction of phage number recovered from the tumor tissue” value is 95%. Further, the “effect on cell viability” value in the experiment on SW1116 cells is “no significant effect on cell viability”. For the same sequence, in experiment [2], the “peptide fluorescence in control organs (histological analysis)” value is given as “not in the control organs” and the “peptide fluorescence in vasculature of tumor tissue (histological analysis)” value is recorded as “remained in the vasculature of tumor tissue”. Also, in the experiment with colon 26 cells, the “effect on cell viability” value is reported as “no significant effect on cell viability”.
